Data on eight compounds can be found in ChEMBL document CHEMBL5236615, “Discovery of Novel N-Heterocyclic-Fused Deoxypodophyllotoxin Analogues as Tubulin Polymerization Inhibitors Targeting the Colchicine-Binding Site for Cancer Treatment” (J Med Chem, 2022).

One series has as its system HT-29. As to the kind of experiment: Antiproliferative activity against human HT-29 cells measured after 72 hrs by MTT assay. It is filed as functional, cell-based. To be noted: HT-29, 72 h.
A further series has as its system HCT-116. As to the kind of experiment: Antiproliferative activity against human HCT-116 cells measured after 72 hrs by MTT assay. Type of series: functional, cell-based. To be noted: HCT-116, 72 h.
A short description of series [1]: Metabolic stability in human liver microsomes assessed as half life at 1 uM by LC/MS analysis. Type of series: ADME, Microsome.
Series [2] can be described thus: Metabolic stability in human liver microsomes assessed as intrinsic clearance at 1 uM by LC/MS analysis. Type of series: ADME, Microsome. The note with it: read-out: CLH.
The test system of the next series is K562. As to the kind of experiment: cells. The note with it: Homo sapiens, K562, 72 h.
For another series, the system named is MCF7. As to the kind of experiment: cells. The note with it: Homo sapiens, MCF7, 72 h.
The target in series [3] is Tubulin beta (Homo sapiens) (UniProt P68371+Q9H4B7+Q13509+P04350+Q3ZCM7+P07437+Q13885+Q9BVA1+Q9BUF5+A6NNZ2). Put plainly: Binding affinity to beta-tubulin colchicine binding site in human MCF-7 cells assessed as inhibition of EBI-beta-tubulin adduct band formation preincubated for 2 hrs followed by EBI addition and measured after 1.5 hrs by EBI competition based Western blotting analysis. It is filed as cell-based. To be noted: MCF7, dose 0.2-25 µM, time 3.5 hrs.

The next series addresses Tubulin (Homo sapiens) (UniProt P68371+Q9H4B7+P0DPH7+P68366+Q13509+Q71U36+P04350+Q3ZCM7+P07437+P68363+Q9BQE3+Q6PEY2+Q13885+Q9BVA1+Q9BUF5). Put plainly: Disruption of microtubule network in human MCF7 cells assessed as broken microtubule filaments at 20 nM measured after 6 hrs by immunofluorescence assay. It is filed as cell-based.
Series [4] is described as follows: Antiproliferative activity against paclitaxel-resistant human MCF7/TxR cells measured after 72 hrs by MTT assay. Type of series: functional, cell-based.
The nature of series [5]: Antiproliferative activity against paclitaxel-resistant human A549/TxR cells measured after 72 hrs by MTT assay. Type of series: functional, cell-based.
The nature of series [6]: Antitumor activity against paclitaxel-resistant human MCF7/TxR cells xenografted in Balb/c mouse assessed as tumor growth inhibition at 10 mg/kg, ip administered for every 2 days for 21 days. The note with it: 504 h, time 21 day, read-out: TGI. It is filed as functional.
A short description of series [7]: Toxicity in Balb/c mouse assessed as pathological changes in blood alanine aminotransferase level at 10 mg/kg, ip administered for every 2 days for 14 days. It is filed as organism-based. The note with it: in vivo, 336 h, time 14 day.
Series [8] can be described thus: Toxicity in Balb/c mouse assessed as pathological changes in blood aspartate aminotransferase level at 10 mg/kg, ip administered for every 2 days for 14 days. Type of series: organism-based. The note with it: in vivo, 336 h, time 14 day.

Structures are written as SMILES. pIC50: −log10 of the molar value. Activity calls are given as the source filed them. No cut-off for these calls is given here.

Description for K562: Antiproliferative activity against human K562 cells measured after 72 hrs by MTT assay
Description for MCF7: Antiproliferative activity against human MCF7 cells measured after 72 hrs by MTT assay

Turning to `O=C1NC(=O)N2[C@H](c3cc(Cl)c(F)c(Cl)c3)c3cc4c(cc3C[C@@H]12)OCCO4`, the pIC50 with HT-29 is 7.63; in the series with HCT-116 it was 7.64; with K562, 7.31; with MCF7, 7.31. The half-life at 1 µM in [1] amounted to 14.4 min. In series [2], the CLint scaled at 1 µM was 121 mL/min/kg.
For the compound `COc1c(Cl)cc([C@@H]2c3cc4c(cc3C[C@H]3COC(=O)N32)OCCO4)cc1Cl`, the pIC50 with HT-29 was 8.22; in the series on HCT-116, 8.24; in the series on K562, 8.20; with MCF7, 8.23. The half-life at 1 µM in series [1] was 2.95 min. Moreover, the CLint scaled at 1 µM in series [2] was determined as 589 mL/min/kg.
Regarding `COc1c(Br)cc([C@@H]2c3cc4c(cc3C[C@H]3COC(=O)N32)OCCO4)cc1Br`, the pIC50 in the series with HT-29 is 8.62; in the series with HCT-116 it was 8.48; with K562, 8.17; in the series on MCF7, 8.37. In addition, the half-life at 1 µM in series [1] was found to be 1.27 min. The CLint scaled at 1 µM in series [2] was 1370 mL/min/kg.
Regarding `COc1ccc(/C=C\c2cc(OC)c(OC)c(OC)c2)cc1O` [COMBRETASTATIN A4], the pIC50 in the series on HT-29 is 6.41; with HCT-116, 8.17; in series [4], 7.81; in series [5] it was 7.30; with K562, 7.95; in the series on MCF7, 8.23. Also, in series [3], the Activity result is “Dose-Dependent Effect”. Besides, the outcome on Tubulin (Homo sapiens) was Active.
As for `COc1cc([C@@H]2c3cc4c(cc3C[C@H]3C(=O)NC(=O)N23)OCCO4)cc(OC)c1OC`, the negative logarithm of the IC50 (pIC50) was 7.67 in the series on HT-29, 7.57 in the series on HCT-116, 7.50 in the series on K562 and 7.77 in the series on MCF7. Further, the half-life at 1 µM in series [1] is 21.4 min. Moreover, the CLint scaled at 1 µM in series [2] stood at 81.2 mL/min/kg.
Regarding `CC(=O)O[C@H]1C(=O)[C@@]2(C)[C@H]([C@H](OC(=O)c3ccccc3)[C@]3(O)C[C@H](OC(=O)[C@H](O)[C@@H](NC(=O)c4ccccc4)c4ccccc4)C(C)=C1C3(C)C)[C@]1(OC(C)=O)CO[C@@H]1C[C@@H]2O` [PACLITAXEL], the pIC50 is 7.97 in the series with HT-29; 7.20 in the series on HCT-116; 5.56 in series [4]; 5.78 in series [5]; 7.53 in the series on K562; 7.71 in the series on MCF7. In series [6], the inhibition in vivo at 10 mg/kg turned out to be 28.6%. In addition, the Activity entry in [7] and in series [8] was “Toxic” throughout.
Regarding `COc1cc([C@@H]2c3cc4c(cc3C[C@H]3COC(=O)[C@@H]32)OCO4)cc(OC)c1OC` [DESOXYPODOPHYLLOTOXIN], the pIC50 in the series with HT-29 was 7.78; in the series on HCT-116, 7.84; in the series on K562, 7.80; with MCF7, 8.22. In [1], the half-life at 1 µM turned out to be 1.12 min. For the same compound, the CLint scaled at 1 µM in [2] was 1440 mL/min/kg.
In the case of `COc1cc([C@@H]2c3cc4c(cc3C[C@H]3COC(=O)N32)OCCO4)cc(OC)c1OC`, the pIC50 is 7.83 with HT-29, 8.17 with HCT-116, 7.77 in the series with K562 and 7.76 in the series on MCF7. Besides, the half-life at 1 µM in series [1] is 2.19 min. Besides, the CLint scaled at 1 µM in [2] is 794 mL/min/kg.
